Laboratory results reported in ChEMBL document CHEMBL1671771, “Bismuth heterocycles based on a diphenyl sulfone scaffold: synthesis and substituent effect on the antifungal activity against Saccharomyces cerevisiae” (Eur J Med Chem, 2011).

The substances below were run on Saccharomyces cerevisiae (assay: Antifungal activity against Saccharomyces cerevisiae W303-1A at 30 mM after 48 hrs).
Format: functional, organism-based

First: 10-Chloro-2-phenylphenothiabismine 5,5-dioxide
Second: 1,10-Dichlorophenothiabismine 5,5-dioxide
The inhibition zone (IZ) of the first is lower: 0 mm for the first, 13 mm for the second.

First: 2,10-Dichlorophenothiabismine 5,5-dioxide
Second: 10-Chloro-3-methylphenothiabismine 5,5-dioxide
The inhibition zone (IZ) of the first is higher: 13 mm for the first, 8 mm for the second.

Compared with “10-Chloro-2-fluorophenothiabismine 5,5-dioxide”, “10-chlorobenzo[b][1,4]benzothiabismine 5,5-dioxide” is higher in inhibition zone (IZ): 17 mm for the first, 18 mm for the second.

Compared with “2,8-Dihydroxy-10-chlorophenothiabismine 5,5-dioxide”, “4,10-Dichlorophenothiabismine 5,5-dioxide” is higher in inhibition zone (IZ): 8 mm for the first, 10 mm for the second.

First: 10-Chloro-2-dimethylaminophenothiabismine 5,5-dioxide
Second: 10-(Pyrrolidinedithiocarbamoyl)phenothiabismine 5,5-dioxide
The inhibition zone (IZ) of the first is higher: 7 mm for the first, 0 mm for the second.

Going from “10-Chloro-2-tert-butylphenothiabismine 5,5-dioxide” to “10-Chloro-2-trifluoromethylphenothiabismine 5,5-dioxide”, the inhibition zone (IZ) rises from 0 mm to 11 mm.

First: 10-(4-Nitrobenzoyloxy)phenothiabismine 5,5-dioxide
Second: 10-Chloro-2-methoxyphenothiabismine 5,5-dioxide
The inhibition zone (IZ) of the first is higher: 17 mm for the first, 11 mm for the second.

“tert-butyl-[2-[tert-butyl(dimethyl)silyl]oxy-10-chloro-5,5-dioxo-benzo[b][1,4]benzothiabismin-8-yl]oxy-dimethyl-silane” and “10-(N,N-Diethyldithiocarbamoyl)phenothiabismine 5,5-dioxide” are the same in inhibition zone (IZ): 0 mm for the first, 0 mm for the second.

Going from “10-Chloro-2-methylphenothiabismine 5,5-dioxide” to “10-(4-Dimethylaminobenzoyloxy)phenothiabismine 5,5-dioxide”, the inhibition zone (IZ) falls from 14 mm to 13 mm.
